Measured values from US11400089B2, “Multikinase inhibitors and uses in reproductive and digestive tract fibrosis” (AIVIVA BIOPHARMA, INC., priority 2017, dated 2022).

How the values were obtained:
[1] = system: LL37-induced inflammation; experiment: intradermal LL37 injection-induced inflammation model in mice, histopathology (Example 7); assay type: in vivo; details: single intradermal injection 1.6 mg, FIG. 13
Experimental: (§1) In our study, mice were injected subcutaneously with 40 μL of LL-37 (3.3 mg/mL) to induce inflammatory reactions. Immediately following the LL-37 injection, axitinib, nintedanib, and lenvatinib were individually administered as a single intradermal injection (1.6 mg). LL-37 injection was repeated every 12 hours for a total of 4 injections. Endotoxin-free water and dexamethasone (3 mg/kg by intraperitoneal injection, twice), respectively, were used as negative and positive control groups.
At 48 hours after the initial LL-37 injection, the dorsal skin was photographed, and the severity of skin lesions were scored for redness and measured for areas of involvement.
The tissue samples were analyzed for inflammation characteristics. Histopathology endpoints included inflammation, and CD4+ and CD8+ T-lymphocyte immunostaining. For inflammation scores, tissues were examined histologically and scored for inflammatory cell infiltrate.

[2] = system: TGF beta 1 protein levels; experiment: TGF beta 1 protein level (ELISA) in pig linear incision wound model (Example 6); assay type: in vivo, Gottingen minipigs; details: 16 mg per wound site intradermal; Days 4, 7 and 9; FIG. 11
Experimental: Full-thickness linear incision wounds were created in Gottingen minipigs on Day 1. 10 wounds approximately 3 cm in length and spaced at least 5 cm apart were created on the dorsal surface of the animals, perpendicular to the spine. Test agents included nintedanib (2%), lenvatinib (2%), sorafenib (1%), axitinib (2%) and vehicle control. Test agents were administered by intradermal injection immediately after wound creation. The dose of nintedanib, lenvatinib, sorafenib, or axitinib was 16 mg per wound site. Three minipigs were dosed in a similar manner. One minipig was sacrificed on Day 4, one on Day 7, and one on Day 9.
At the time of sacrifice, two dermal punch biopsies (4 mm) from each side of the wound sites were collected. Two biopsies were flash frozen in liquid nitrogen and stored at −80° C. prior to processing by protein extraction and ELISA (enzyme-linked immunosorbent assay) analysis. TGF beta protein levels were measured on Days 4, 7 and 9.

[3] = system: TGF beta mRNA expression; experiment: TGF beta mRNA expression in rabbit dermal wound model (Example 5); assay type: in vivo, New Zealand White rabbits; details: 1% intradermal days 15 and 29; Day 42; FIG. 10
Experimental: (§2) Test compounds were examined in full-thickness dermal wounds in rabbits. Seven male New Zealand White rabbits, ranging in body weight from 3.03 to 3.40 kg were used in this study. Four wounds were placed on the ventral surface of both ears using an 8 mm skin punch biopsy. Axitinib (1.0%), nintedanib (1.0%), lenvatinib (1.0%), sorafenib (1.0%) and sunitinib (1.0%) were administered by intradermal or intralesional injection on days 15 and 29 following surgery. Animals were euthanized on Day 42 and trauma sites were harvested and divided in half. One half was preserved in formalin for histological examination and the other half frozen for TGF beta analysis.
TGF beta mRNA expression in treated trauma samples was compared to expression in untreated samples. In general, TGF beta expression in treated samples was lower relative to untreated trauma samples.

[4] = system: full-thickness dermal wounds; experiment: full-thickness dermal wounds in rabbit ear, histopathology (Example 5); assay type: in vivo, New Zealand White rabbits; design: average total score of test wounds lower than untreated/control wounds by / Neovascularization (histopathology score, treated mean) / Fibrosis/Collagen (histopathology score, treated mean) / Reepithelialization (histopathology score, treated mean) / Total Score (histopathology, treated mean): scale not given here; details: for Fibrosis/Collagen (histopathology score, treated mean) / Neovascularization (histopathology score, treated mean) / Reepithelialization (histopathology score, treated mean) / Total Score (histopathology, treated mean): 1% intradermal dosing days 15 and 29, Day 42; for average total score of test wounds lower than untreated/control wounds by: difference treated vs control
Experimental: as §2, with “analysis. Tissue H&E staining was evaluated semi-quantitatively for inflammation and neovascularization. Tissue fibrosis and collagen organization were evaluated by Mason's trichrome staining. Scores for four intradermal sites receiving test articles were averaged for each rabbit. Most scar tissues were composed of neovascularization, fibroblast hyperplasia, collagen disorganization and re-epithelialization.” for “analysis.”

[5] = system: suture induced ocular fibrosis; experiment: suture induced ocular fibrosis model in rabbits (Example 4); assay type: in vivo; details: for areas of neovascularization on the corneal surface: 0.3% topical 35 μL/eye three times daily for 10 days, FIG. 8; for fibroplasia and/or collagen density (histological staining) / alpha SMA staining (immunohistochemical analysis): 0.3% topical three times daily for 10 days, FIG. 9; for fibroplasia and/or collagen density (histological staining): Day 11; for alpha SMA staining (immunohistochemical analysis): relative to vehicle
Experimental: A study was conducted to determine the potential beneficial effects of topical administration of test compounds and vehicle in a suture induced ocular fibrosis model in rabbits. Sutures were placed intrastromally, under a microscope, in the cornea of rabbits. In each eye, one 9.0 silk suture was placed, in a vertical position, temporal to the center of the cornea and a second suture was placed nasal to the corneal center. Each suture had two stromal incursions approximately 2 mm from the limbus. Test compounds having a certain spectrum of multikinase inhibition activities or vehicle were topically instilled (35 μL/eye) in the eyes three times daily for 10 days following the day of surgery. The treatment groups include vehicle, axitinib (0.3%), nintedanib (0.3%), pirfenidone (1%), riociguat (0.3%), sorafenib (0.3%) and lenvatinib (0.3%). Six left eyes were used per treatment group.
During the in-life phase, gross ocular observations of very slight to moderate conjunctival congestion and swelling were similar among groups, including the vehicle control. The animals were sacrificed on Day 11 and eyes enucleated and dissected for histopathological evaluation.

[6] = system: testosterone and phenylephrine induced benign prostate hyperplasia; experiment: testosterone and phenylephrine induced benign prostate hyperplasia in rats (Example 3); assay type: in vivo, Male Wistar rats; details: for inhibition of cellular proliferation in testosterone/phenylephrine induced benign prostate hyperplasia model: 1% intra-prostate days 1 and 18, rat; for epithelial (glandular) hyperplasia score, dorsolateral prostate, representative image / epithelial (glandular) hyperplasia score, ventral prostate, representative image: TE+PE induced rats, intra-prostate 0.4 ml days 1 and 18, day 32, induced vehicle score=4; for epithelial (glandular) hyperplasia score, dorsolateral prostate, representative image: grade 0 (not present) to 5 (severe), FIG. 4; for epithelial (glandular) hyperplasia score, ventral prostate, representative image: grade 0 to 5, FIG. 5
Experimental: This study was conducted to determine the effects of multikinase inhibitors and vehicle on testosterone and phenylephrine induced benign prostate hyperplasia in rats. Male Wistar rats were induced with testosterone (2 mg/kg) plus phenylephrine (5 mg/kg) administered daily by subcutaneous injection on days 5 through 32. Vehicle or test compounds (all 1% w/v), nintedanib, sunitinib or lenvatinib and doxazosin mesylate, were administered by intra-prostate injection (0.4 ml) in dorsolateral and ventral lobes on days 1 and 18. Animals were euthanized on day 32.
At necropsy, the ventral and dorsolateral lobes of the prostate were separated and then cut into halves. The left halves were fixed in 10% neutral buffered formalin, sectioned, and stained with Hematoxylin and Eosin (H&E). Histological changes in these sections were scored. Epithelial hyperplasia was recognized as an increase in epithelial cells within normal-appearing gland profiles, primarily reflected by stratification of epithelial cells and increased presence of epithelial tufting and papillary projections. A severity grade of 0 (not present) through 5 (severe) was assigned to each sample.

[7] = system: TGFb-1 mRNA expression; experiment: TGFb1 mRNA expression in LL37-induced mice (Example 7); assay type: in vivo; details: single intradermal injection 1.6 mg, FIG. 12
Experimental: as §1
The TGFb1 mRNA expression in mice induced with LL37 and treated with lenvatinib was 79% of that challenged with LL37 alone (i.e., without treatment).

[8] = 1% intradermal, rabbit ear wound

| Structure (SMILES) | inflammation scores (inflammatory cell infiltrate) [1] | TGF beta 1 protein levels in wound [2] | mean folds of TGF beta mRNA expression vs untreated trauma samples [3] | Fibrosis/Collagen (histopathology score, treated mean) ([4]; rabbit ear wound) | Neovascularization (histopathology score, treated mean) ([4]; rabbit ear wound) | Reepithelialization (histopathology score, treated mean) ([4]; rabbit ear wound) | Total Score (histopathology, treated mean) ([4]; rabbit ear wound) | average total score of test wounds lower than untreated/control wounds by ([4]; 1% intradermal) | angiogenesis and fibrosis at treated trauma sites (histopathology summary) [4, 8] | fibrosis compared with control wound sites [4, 8] | neovascularization compared with untreated wounds [4, 8] | scar formation overall compared with control sites [4, 8] | areas of neovascularization on the corneal surface [5] | fibroplasia and/or collagen density (histological staining) [5] | alpha SMA staining (immunohistochemical analysis) [5] | inhibition of cellular proliferation in testosterone/phenylephrine induced benign prostate hyperplasia model [6] | epithelial (glandular) hyperplasia score, dorsolateral prostate, representative image [6] | epithelial (glandular) hyperplasia score, ventral prostate, representative image [6] | TGFb1 mRNA expression relative to LL37 alone (without treatment) [7] | TGFb-1 mRNA expression among all treatment groups [7] |
| --- | --- | --- | --- | --- | --- | --- | --- | --- | --- | --- | --- | --- | --- | --- | --- | --- | --- | --- | --- | --- |
| COC(=O)c1ccc2c(c1)NC(=O)/C2=C(\Nc1ccc(N(C)C(=O)CN2CCN(C)CC2)cc1)c1ccccc1 [nintedanib] | prominent reductions in the scores of inflammation | time-dependent inhibition of TGF beta 1 protein levels | lower than the expression level in untreated trauma samples | 3 | 1 | 0.5 | 4.5 | 1.5 | decreased angiogenesis and fibrosis | about the same fibrosis as untreated wounds | much less neovascularization | less scar formation compared with the control sites | efficacious in reducing the areas of neovascularization | significantly reduced fibroplasia and/or collagen density | significantly reduced alpha SMA staining | effective inhibitors of cellular proliferation | 3 | 3 | – | – |
| COc1cc2nccc(Oc3ccc(NC(=O)NC4CC4)c(Cl)c3)c2cc1C(N)=O [lenvatinib] | prominent reductions in the scores of inflammation | time-dependent inhibition of TGF beta 1 protein levels | lower than the expression level in untreated trauma samples | 2.5 | 2 | 0 | 4.5 | 0.5 | decreased angiogenesis and fibrosis | decreased fibrosis compared to control wound sites | – | – | efficacious in reducing the areas of neovascularization | significantly reduced fibroplasia and/or collagen density | significantly reduced alpha SMA staining | effective inhibitors of cellular proliferation | 2 | 3 | 79% | lowest TGFb-1 mRNA expression |
